Literature values as cited in patent publication US8883841B2, “Oncogenic ras-specific cytotoxic compound and methods of use thereof” (The Board of Regents of the University of Texas System, priority 2005, dated 2014).

System: wild-type MEF
Conditions: Winter-Vann et al., 2005; cited from earlier work

## CCCCCCCCn1cc(CC(N)=O)c2cc(-c3cccc(C)c3)ccc21 [Cysmethynil, 2-[5-(3-methylphenyl)-1-octyl-1H-indol-3-yl]acetamide]
  growth inhibition in wild-type MEF: induce Icmt-dependent growth inhibition
